This is an account of results in US9284283B2, “Macrocyclic compounds for modulating IL-17” (ENSEMBLE THERAPEUTICS CORPORATION, priority 2012, dated 2016).

A word on the IC50: it is the concentration at which inhibition is half-maximal.

Bounds are passed on as bounds.

In this experiment the target is T1, recombinant human IL17a (binding to its receptor IL17R) (Homo sapiens, UniProt Q16552).
T1 construct: purchased R&D Systems 317-ILB (IL17a); 177-IR (IL17R/Fc)
T1 sequence (Q16552 20-155 limits assumed): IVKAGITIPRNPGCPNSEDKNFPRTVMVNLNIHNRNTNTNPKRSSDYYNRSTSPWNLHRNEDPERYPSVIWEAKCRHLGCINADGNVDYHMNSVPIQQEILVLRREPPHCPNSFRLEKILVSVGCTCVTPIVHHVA
The experiment in a line: IL-17 competition ELISA I (IL17a coated, IL17R/Fc binding). Here is the method: ELISA I: The ability of the compounds to block binding of IL17a to its receptor, IL17R, was analyzed in a competition ELISA format. High binding 96-well plates (Costar #9018) were coated with 20 nM of recombinant human IL17a (R&D Systems #317-ILB) in PBS (0.64 μg/mL), 100 μL/well, for 30 min at 37′C followed by 5 min at 4′C. Plates were then washed in PBST (PBS/0.05% Tween-20) on a plate washer, (Biotech EL-450) blocked with protein-free blocking buffer (Thermo Scientific #37573) in 250 μL/well for 30 min on shaker at room temperature, and then washed again. Compound dilutions prepared in PBST were added into the wells in duplicates followed by the addition of IL17R/Fc (R&D Systems #177-IR) at a final concentration of 12 nM. Plates were then incubated for 30 min at room temperature on the shaker. Wells with no compound served as a positive “no competitor” control, while wells with no IL17R/Fc and no compound served as a blank negative control. After an additional PBST wash, 50 ng/mL HRP-conjugated goat anti-human Fc IgG (KPL #04-10-20) was added to the plate for 30 min at room temperature, followed by PBST wash and addition of SureBlue™ TMB (KPL #52-00-03). After the sufficient color development, the reaction was fixed by the addition of 100 μL/well 0.5 N HCl and absorbance was measured at 450 nm on Biotek plate reader.
Data were processed using BioAssay Enterprise v10.1.4 (CambridgeSoft) software. Linear OD λ450 were plotted against log concentration (x) and fitted to a 4-parameter logistic equation. IC50 was calculated using positive ‘no competitor’ control data as an upper limit and blank control as a lower limit in each assay.
Turning to `C=CCOC(=O)N1CCNC(=O)CNC(=O)[C@@H](Cc2ccc(NC(=O)[C@H](Cc3ccccc3Cl)NC(=O)Cc3ccccc3)cc2)NC(=O)CC2(CCCC2)CC(=O)NCC1` [Compound 284], the IC50 was 100 to 1000 nM.
Then `COC(=O)[C@@H]1CCCCNC(=O)CC2(CCCC2)CC(=O)N[C@H](Cc2ccc(NC(=O)[C@H](Cc3ccccc3Cl)NC(=O)Cc3ccccc3)cc2)C(=O)NCC(=O)N1` [Compound 285], with less than 100 nM.
Next, `O=C1CCCCCNC(=O)CNC(=O)[C@@H](Cc2ccc(NC(=O)[C@H](Cc3ccccc3Cl)NC(=O)Cc3ccccc3)cc2)NC(=O)CC2(CCCCC2)CN1` [Compound 286]: 100 to 1000 nM.
Then `C[C@@H]1C(=O)NCCCCCNC(=O)CC2(CCCC2)CC(=O)N[C@H](Cc2ccc(NC(=O)[C@H](Cc3ccccc3Cl)NC(=O)Cc3ccccc3)cc2)C(=O)N1C` [Compound 289], with 1000 to 10000 nM.
As for `C[C@@H]1NC(=O)[C@@H](Cc2ccc(NC(=O)[C@H](Cc3ccccc3Cl)NC(=O)Cc3ccccc3)cc2)NC(=O)CC2(CCCC2)CC(=O)NCCCCCNC1=O` [Compound 290], the IC50 lay in the range of 100 to 1000 nM.
`C[C@H]1C(=O)NCCCCCNC(=O)CC2(CCCC2)CC(=O)N[C@H](Cc2ccc(NC(=O)[C@H](Cc3ccccc3Cl)NC(=O)Cc3ccccc3)cc2)C(=O)N1C` [Compound 291]: the IC50 was in the range of 1000 to 10000 nM.
Then `O=C1CNC(=O)[C@@H](Cc2ccc(NC(=O)[C@H](CC3CCCCC3)NC(=O)Cc3ccc(O)cc3)cc2)NC(=O)CC2(CCCC2)CC(=O)NCCCCCN1` [Compound 294], with less than 100 nM.
Turning to `O=C1CNC(=O)[C@@H](Cc2ccc(NC(=O)[C@H](Cc3ccccc3Cl)NC(=O)Cc3ccc(F)cc3F)cc2)NC(=O)CC2(CCCC2)CC(=O)NCCCCCN1` [Compound 296], the IC50 was less than 100 nM.
Then `O=C1CNC(=O)[C@@H](Cc2ccc(NC(=O)[C@H](Cc3ccccc3Cl)NC(=O)c3ccc(F)c(F)c3)cc2)NC(=O)CC2(CCCC2)CC(=O)NCCCCCN1` [Compound 297], with less than 100 nM; and `O=C1CNC(=O)[C@@H](Cc2ccc(NC(=O)[C@H](Cc3ccccc3Cl)NC(=O)Cc3ccc(F)c(F)c3)cc2)NC(=O)CC2(CCCC2)CC(=O)NCCCCCN1` [Compound 298], with less than 100 nM; and `O=C1CNC(=O)[C@@H](Cc2ccc(NC(=O)[C@H](Cc3ccccc3Cl)NC(=O)c3ccc(C(=O)O)cc3)cc2)NC(=O)CC2(CCCC2)CC(=O)NCCCCCN1` [Compound 299], with 1000 to 10000 nM.
Next, `O=C1CNC(=O)[C@@H](Cc2ccc(NC(=O)[C@H](Cc3ccccc3Cl)NC(=O)CN3CCCCC3)cc2)NC(=O)CC2(CCCC2)CC(=O)NCCCCCN1` [Compound 300]: 100 to 1000 nM; `O=C1CNC(=O)[C@@H](Cc2ccc(NC(=O)[C@H](Cc3ccccc3Cl)NC(=O)CN3CCCC3)cc2)NC(=O)CC2(CCCC2)CC(=O)NCCCCCN1` [Compound 301]: 1000 to 10000 nM; `CN(C)CC(=O)N[C@@H](Cc1ccccc1Cl)C(=O)Nc1ccc(C[C@H]2NC(=O)CC3(CCCC3)CC(=O)NCCCCCNC(=O)CNC2=O)cc1` [Compound 303]: 100 to 1000 nM.
Next, `O=C1CNC(=O)[C@@H](Cc2ccc(NC(=O)[C@H](Cc3ccccc3Cl)NC(=O)CN3CCOCC3)cc2)NC(=O)CC2(CCCC2)CC(=O)NCCCCCN1` [Compound 304]: 100 to 1000 nM.
As to `CN1CCCCCNC(=O)CNC(=O)[C@@H](Cc2ccc(NC(=O)[C@H](Cc3ccccc3Cl)NC(=O)c3ccc(F)cc3)cc2)NC(=O)CC2(CCCC2)CC1=O` [Compound 306], the IC50 is 100 to 1000 nM.
Then `CN1CCCCCNC(=O)CC2(CCCC2)CC(=O)N[C@H](Cc2ccc(NC(=O)[C@H](Cc3ccccc3Cl)NC(=O)Cc3ccc(O)cc3)cc2)C(=O)NCC1=O` [Compound 307], with less than 100 nM.
Next, `CN1CCCCCNC(=O)CC2(CCCC2)CC(=O)N[C@H](Cc2ccc(NC(=O)[C@H](Cc3ccccc3Cl)NC(=O)c3ccc(F)cc3)cc2)C(=O)NCC1=O` [Compound 308]: 100 to 1000 nM; `O=C1CC2(CCCC2)CC(=O)N[C@H](Cc2ccc(NC(=O)[C@H](Cc3ccccc3Cl)NC(=O)c3ccc(F)cc3)cc2)C(=O)N[C@@H](Cc2ccccc2)C(=O)NCCCCCN1` [Compound 309]: 100 to 1000 nM; `O=C1CNC(=O)[C@@H](Cc2ccc(NC(=O)[C@H](NC(=O)Cc3ccccc3)C3CCCCC3)cc2)NC(=O)CC2(CCCC2)CC(=O)NCCCCCN1` [Compound 315]: 1000 to 10000 nM.
Next, `O=C1CC2(CCCC2)CC(=O)N[C@H](Cc2ccc(NC(=O)[C@H](Cc3ccccc3Cl)NC(=O)Cc3ccccc3)cc2)C(=O)N[C@@H](Cc2ccccc2)C(=O)NCCCCCN1` [Compound 317]: less than 100 nM.
As for `O=C1CC2(CCCC2)CC(=O)N[C@H](Cc2ccc(NC(=O)[C@H](Cc3ccccc3Cl)NC(=O)Cc3ccccc3)cc2)C(=O)NCC(=O)OCCCCCN1` [Compound 318], the IC50 lay in the range of 100 to 1000 nM.
Then `O=C1CC2(CCCC2)CC(=O)N[C@H](Cc2ccc(NC(=O)[C@H](Cc3ccccc3Cl)NC(=O)Cc3ccccc3)cc2)C(=O)N[C@@H](CO)C(=O)NCCCCCN1` [Compound 319], with 100 to 1000 nM.
`CC(C)(C)OC[C@@H]1NC(=O)[C@@H](Cc2ccc(NC(=O)[C@H](Cc3ccccc3Cl)NC(=O)Cc3ccccc3)cc2)NC(=O)CC2(CCCC2)CC(=O)NCCCCCNC1=O` [Compound 320]: the half-maximal inhibitory concentration (IC50) was 100 to 1000 nM.
Then `C[C@@H](O)[C@@H]1NC(=O)[C@@H](Cc2ccc(NC(=O)[C@H](Cc3ccccc3Cl)NC(=O)Cc3ccccc3)cc2)NC(=O)CC2(CCCC2)CC(=O)NCCCCCNC1=O` [Compound 321], with 100 to 1000 nM.
For `O=C1CNC(=O)[C@@H](Cc2ccc(NC(=O)[C@H](Cc3ccccc3Cl)NC(=O)Cc3ccccc3)cc2)NC(=O)CC2(CCCC2)CC(=O)NCCCCCOC(=O)CN1` [Compound 322], the IC50 was 100 to 1000 nM.
Then `CN1CCNC(=O)CNC(=O)[C@@H](Cc2ccc(NC(=O)[C@H](Cc3ccccc3Cl)NC(=O)Cc3ccccc3)cc2)NC(=O)CC2(CCCC2)CC(=O)NCC1` [Compound 323], with 100 to 1000 nM; and `O=C1CNC(=O)[C@@H](Cc2ccc(NC(=O)[C@H](Cc3ccc(F)cc3Cl)NC(=O)c3ccc(F)cc3)cc2)NC(=O)CC2(CCCC2)CC(=O)NCCOCCN1` [Compound 324], with 100 to 1000 nM; and `O=C1CNC(=O)[C@@H](Cc2ccc(NC(=O)[C@H](Cc3ccccc3Cl)NC(=O)c3cc(F)c(F)c(F)c3)cc2)NC(=O)CC2(CCCC2)CC(=O)NCCCCCN1` [Compound 326], with 100 to 1000 nM.
Then `O=C1CNC(=O)[C@@H](Cc2ccc(NC(=O)[C@H](Cc3ccccc3Cl)NC(=O)c3cncnc3)cc2)NC(=O)CC2(CCCC2)CC(=O)NCCCCCN1` [Compound 327], with less than 100 nM; and `O=C1CNC(=O)[C@@H](Cc2ccc(NC(=O)[C@H](Cc3ccccc3Cl)NC(=O)c3ccc(F)c(F)c3F)cc2)NC(=O)CC2(CCCC2)CC(=O)NCCCCCN1` [Compound 328], with 100 to 1000 nM; and `O=C1CNC(=O)[C@@H](Cc2ccc(NC(=O)[C@H](Cc3ccccc3Cl)NC(=O)c3cc(F)c(F)cc3F)cc2)NC(=O)CC2(CCCC2)CC(=O)NCCCCCN1` [Compound 329], with 100 to 1000 nM.
Then `O=C1CNC(=O)[C@@H](Cc2ccc(NC(=O)[C@H](Cc3ccccc3Cl)NC(=O)c3ccccc3O)cc2)NC(=O)CC2(CCCC2)CC(=O)NCCCCCN1` [Compound 330], with 100 to 1000 nM; and `O=C1CC2(CCCC2)CC(=O)N[C@H](Cc2ccc(NC(=O)[C@@H](NC(=O)Cc3ccccc3)C3CCCCC3)cc2)C(=O)N[C@H](Cc2ccccc2)C(=O)NCCCCCN1` [Compound 331], with 100 to 1000 nM.
Take `O=C1CC2(CCCC2)CC(=O)N[C@H](Cc2ccc(NC(=O)[C@@H](NC(=O)Cc3ccccc3)C3CCCCC3)cc2)C(=O)NCCCCCCCCN1` [Compound 334]: the IC50 was 1000 to 10000 nM.
Then `O=C1CC2(CCCC2)CC(=O)N[C@H](Cc2ccc(NC(=O)[C@@H](NC(=O)Cc3ccc(CO)cc3)C3CCCCC3)cc2)C(=O)NCCCCCCCCN1` [Compound 337], with 100 to 1000 nM; and `CN1CCCCCNC(=O)CNC(=O)[C@@H](Cc2ccc(NC(=O)[C@@H](NC(=O)Cc3ccc(CO)cc3)C3CCCCC3)cc2)NC(=O)CC2(CCCC2)CC1=O` [Compound 343], with 100 to 1000 nM.
Regarding `CN1CCCCCNC(=O)CC2(CCCC2)CC(=O)N[C@H](Cc2ccc(NC(=O)[C@@H](NC(=O)Cc3ccc(CO)cc3)C3CCCCC3)cc2)C(=O)NCC1=O` [Compound 351], the IC50 lay within 100 to 1000 nM.
